We go through 52 molecules from PubChem BioAssay AID1996.

Each structure is given as a SMILES string. In brackets after ≈: the same amount, converted by molar mass. Several values for one entry are separate records, joined by “and”; a condition that tells them apart may be missing. Equal entries are not always repeated.

The conditions of the data set: buffer; pH 7.4; 200.0 µM.
As usually defined, the kinetic solubility is solubility judged after dilution from a stock solution rather than from solid. `COc1ccc(C(O)C(C)NC(C)C(O)c2ccc(OC)cc2)cc1` (configuration not stated) gave a kinetic solubility of 43.3 µg/mL (≈ 125 µM).
To `O=C(Nc1cccc([N+](=O)[O-])c1)N1CCCc2ccccc21` belongs 34.6 µg/mL (≈ 116 µM); to `O=C1COc2ccc(N3C(=O)c4ccccc4C3=O)cc2N1`, 1.9 µg/mL (≈ 6.46 µM); to `O=C(C(Cl)c1ccccc1)N1CCOCC1` (configuration not stated), 33.5 µg/mL (≈ 140 µM).
To `CCOCCc1c(O)[nH]c(=S)[nH]c1=O` belongs > 32.4 µg/mL; to `O=C(OCc1ccc([N+](=O)[O-])cc1Cl)c1cnccn1`, > 44.1 µg/mL; to `O=C(CN1CCC(c2nc3ccccc3s2)CC1)N1CCCCC1`, > 51.5 µg/mL.
To `O=C1C2CCCN2C(=S)N1c1ccc(Cl)cc1` (configuration not stated) belongs > 40 µg/mL.
As for `Cc1ccc(NC(=O)NC(=O)CN2CCC(C(N)=O)CC2)c(C)c1`, the kinetic solubility was > 49.9 µg/mL.
To `Clc1ccc(SCc2csc(N3CCOCC3)n2)cc1` belongs 10.2 µg/mL (≈ 31.2 µM); to `Cc1cccc(NC(=O)Cn2c(=O)oc3ccccc32)n1`, > 42.5 µg/mL; to `O=C(Cc1ccccc1)NCC(=O)Nc1ccccc1Br`, 51.4 µg/mL (≈ 148 µM).
To `O=C(Cc1ccccc1)N1CCN=C1SCc1cccc([N+](=O)[O-])c1` belongs 9.7 µg/mL (≈ 27.3 µM); to `Cc1ccc(NC(=O)OCc2cc(-c3ccccc3)on2)cc1`, < 0.3 µg/mL; to `Cc1nc2c(cnn2-c2ccccc2)c(=O)[nH]1`, > 33.9 µg/mL.
`Cc1ccc(C)c(CN2C(=O)COc3ccccc32)c1` registered a kinetic solubility of 2.8 µg/mL (≈ 10.5 µM).
To `CCOC(=O)c1cc(=O)[nH]c2ccccc12` belongs 30.6 µg/mL (≈ 141 µM).
In the case of `O=C(O)c1ccccc1OCCN1CCCC1=O` it was 36.5 µg/mL (≈ 146 µM); in that of `CC(=O)Nc1ccc(N=Cc2c(O)c3ccccc3oc2=O)cc1`, 3.8 µg/mL (≈ 11.8 µM); in that of `NC(=O)c1ccccc1OCCOc1ccc(Br)cc1`, 5.1 µg/mL (≈ 15.2 µM).
To `O=C(Cc1ccc(Cl)cc1)Nc1ccc(CN2CCCCC2)cc1` belongs > 51.4 µg/mL; to `Nc1cccc2c1C(=O)N(CCOc1ccc(F)cc1)C2=O`, 8.4 µg/mL (≈ 28 µM); to `O=C(Cc1cccc(F)c1)Nc1ccc2c(c1)CCC2`, 1.2 µg/mL (≈ 4.46 µM).
Consider `CN(Cc1cccs1)C(=O)CNC(=O)c1ccco1`, for which the solubility (kinetic) is > 41.7 µg/mL.
In the case of `COc1cc(C(=O)OCc2cc(=O)n3ccsc3n2)ccc1OC(C)C` it was 5.3 µg/mL (≈ 14.2 µM); in that of `CCOC(=O)c1c(N)sc(N)c1C(=O)OCC`, 29.9 µg/mL (≈ 116 µM).
In the case of `CC(C)N1CN(c2ccccc2)C(=S)N(c2ccccc2)C1` it was > 46.7 µg/mL; in that of `O=c1c2ccccc2[se]n1-c1ccccc1`, 13.6 µg/mL and 6.6 µg/mL.
To `CCNC(=S)N1CCN(Cc2ccc3c(c2)OCO3)CC1` belongs > 46.1 µg/mL; to `CCc1ccc(S(=O)(=O)N2CCN(C(=O)c3cccnc3)CC2)cc1`, > 53.9 µg/mL.
The molecule `CC(C)N(CC(N)=O)C(=O)c1sc2cc(F)ccc2c1Cl` displayed a solubility (kinetic) of 45 µg/mL (≈ 137 µM).
To `O=C(/C=C/c1ccc(O)c([N+](=O)[O-])c1)c1ccc2ccccc2c1` belongs 1.8 µg/mL (≈ 5.64 µM).
In the case of `O=C(Nc1ccc(Cl)cc1)c1cc(-c2cccs2)on1` it was < 0.3 µg/mL.
To `Cc1ccc(CNC(=O)CN2C(=O)c3ccccc3S2(=O)=O)cc1` belongs 12.5 µg/mL (≈ 36.3 µM); to `Cc1ccccc1CNCc1ccc2c(c1)OCO2.O=C(O)C(=O)O`, > 51.8 µg/mL.
With `COC(=O)c1ccccc1NC(=O)c1sc(Cl)nc1C`, the solubility (kinetic) amounted to 44 µg/mL (≈ 142 µM).
`CC(C)(C)SCCNS(=O)(=O)c1ccc(C#N)cc1` displayed a kinetic solubility of 18.1 µg/mL (≈ 60.7 µM). Compared with the last molecule, the solubility kinetic is about 2.4-fold lower.
On to `CN(CCc1ccccn1)Cc1ccc(Cl)c(Cl)c1`, for which the kinetic solubility was found to be 29.2 µg/mL (≈ 98.9 µM).
To `Cl.NC(N)=NC(N)=Nc1cccc(Cl)c1` belongs > 37.2 µg/mL; to `O=[N+]([O-])c1ccc(SCc2c(F)cccc2Cl)nc1`, < 0.3 µg/mL; to `C#Cc1ccc(CN2CCN(CCCc3ccccc3)C(CCO)C2)cc1` (configuration not stated), 36.9 µg/mL (≈ 102 µM).
To `O=C(COc1ccc(F)cc1Cl)NC1CCCCCC1` belongs 28.3 µg/mL (≈ 94.4 µM).
To `O=C(CSc1cccc[n+]1[O-])NCC1CCCCC1` belongs > 42.1 µg/mL; to `Cc1ccc(NC(=O)C2CC(=O)N(Cc3ccco3)C2)cc1` (configuration not stated), 39.7 µg/mL (≈ 133 µM); to `CC(C)(C)NCc1ccc(OCc2cccs2)cc1.Cl`, 36.8 µg/mL.
On to `O=C(COc1ccc(Cl)cc1Br)Nc1ccncc1`, for which the solubility (kinetic) was 5 µg/mL (≈ 14.6 µM).
In the case of `Cc1cc(C)c(S(=O)(=O)NC2CC(C)(C)NC(C)(C)C2)cc1Br` it was 12.5 µg/mL (≈ 31 µM); in that of `COc1ccc(N2C(=O)CSC2c2ccccc2[N+](=O)[O-])cc1` (configuration not stated), 47.7 µg/mL (≈ 144 µM); in that of `CSc1ncc(Cl)c(C(=O)Nc2ccc(C)c(C)c2)n1`, 0.7 µg/mL (≈ 2.27 µM).
In the case of `O=C(COc1ccccc1Cl)Nc1ccc2oc(=O)ccc2c1` it was < 0.7 µg/mL; in that of `Cn1cnc2c1c(=O)n(Cc1cccc(F)c1)c(=O)n2C`, 30.8 µg/mL (≈ 107 µM).
To `CN(C(=O)COC(=O)c1cc2ccccc2cc1O)c1ccccc1` belongs 3.4 µg/mL (≈ 10.1 µM).
